Source: article PMC7562719, “Discovery of a CNS penetrant small molecule SMN2 splicing modulator with improved tolerability for spinal muscular atrophy” (Scientific Reports, 2020)
Like-named read-outs stand apart in the source and are kept apart here.

System: TK6 cells
Protocol: These articles have been recommended for use in the OECD test guideline (Test No. 487)[49]. For metabolic activation, pre-cultured TK6 cells with the culture medium were supplemented with Sprague–Dawley rat liver mix (S9 mix, IEDA TRADING CORPORATION, Japan) at 3.33 vol%. Then, compound was mixed with the cell suspension and treated under the following treatment conditions: • Short-term treatment for 3 h without S9 mix, followed by a 21-h culture (−S9 mix assay), • Short-term treatment for 3 h with S9 mix, followed by a 21-h culture (+S9 mix assay), or • Continuous treatment for 24 h without S9 mix (24-h assay). For treatment conditions 1 and 2, the cells in each well were centrifuged after the 3-h treatment, the supernatants were discarded, and the cells were washed twice with culture medium. The cells were further cultured with fresh culture medium for 21 h. The compound-treated cells were examined by the unaided eye for precipitation of compound at the start and end of treatment. After treatment, the rest of each cell suspension was centrifuged and then the cells were suspended in a 0.075 mol/L KCl solution at room temperature for 10 min. Then, 25 vol% acetic acid containing methanol was added and the centrifuged cells were fixed. The fixed cells were resuspended in a small amount of 3 vol% acetic acid containing methanol, which was changed two times by centrifugation. Finally, a drop of the cell suspension was transferred onto a slide and dried at room temperature. The slides were stained at room temperature in a 3 vol% Giemsa solution (Merck KGaA) diluted with Sörensen phosphate buffer (1/15 mol/L, pH 6.8, Muto Pure Chemicals Co. Ltd.). Four slides per dose (2 slides per well) were prepared. Each slide was coded randomly. The test was conducted at the following doses of TEC-1. -S9 mix assay: 1.5, 1.7, 1.9, 2.1, 2.3, 2.5, 2.7, 2.9, and 3.1 µg/mL, + S9 mix assay: 1.9, 2.1, 2.3, 2.5, 2.7, 2.9, 3.1, 3.3, and 3.5 µg/mL, 24-h assay: 0.9, 1.1, 1.3, 1.5, 1.7, 1.9, 2.1, 2.3, and 2.5 µg/mL. To perform scoring for compound and negative control groups, the number of cells in the suspensions was counted using a Coulter Counter (Z2; Beckman Coulter, Inc.). The positive control groups were not determined. A portion (0.5 mL) of the cell suspension was diluted with 20 mL of Isoton II, and 0.5 mL of this solution was used for cell counts. The cell number per 1 mL at each culture was calculated by the following formula. Cellnumber/mL=Dilutionfactor×valueof1stcount+valueof2ndcount/2×2
The population doubling (PD) and relative population doubling (RPD) at each concentration was calculated by the following formula. PD=log10cell number at the end of culture/cell number at the start of treatment∗/log102∗:1×10^5cells/mL.
RPD%=PD of the compound-treated group/PD of the negative control group×100 For the treated groups, the 3 consecutive concentrations were selected as follows. […] For all concentrations, 4000 mononuclear cells with cytoplasm were analyzed and the number of cells with micronucleus (micronuclei) was counted using a microscope (× 600). Micronucleus is identified as a round or oval small nucleus in the cytoplasm with the same staining intensity as the main nucleus. The diameter of each micronucleus should be less than 1/2 of the diameter of the main nucleus. Two investigators observed the slides. Each investigator scored 1000 cells for the frequency of micronucleated cells. Data from the two investigators were combined for each culture and the combined data from duplicate cultures were pooled for each concentration for each treatment condition. A cell having one or more micronuclei was recorded as a micronucleated cell.

## Cc1cn2nc(-c3nc4ccc(N5CCN(C)CC5)cc4c(=O)[nH]3)cc2c(C)n1 [TEC-1, 2-(4,6-dimethylpyrazolo[1,5-a]pyrazin-2-yl)-6-(4-methylpiperazin-1-yl)quinazolin-4(3H)-one]
  micronucleus induction, overall conclusion: do not induce micronucleation
24-h assay condition, culture medium
  concentration at which precipitation was noted: ≥ 1.5 µg/mL
human, 3 h
  concentration at which cytotoxicity (RPD of less than 50%) was noted: ≥ 2.3 µg/mL
human, 3 h, 1.9 µg/mL
  Micronucleated cells (%): (0.73) %
  Micronucleated cells Total: 29
  Micronucleated cells Well 1: 13
  Micronucleated cells Well 2: 16
  Relative population doubling: 68.6%
human, 3 h, 2.1 µg/mL
  Micronucleated cells (%): (0.9) %
  Micronucleated cells Total: 36
  Micronucleated cells Well 1: 16
  Micronucleated cells Well 2: 20
  Relative population doubling: 65.4%
human, 3 h, 2.3 µg/mL
  Micronucleated cells (%): (1.4) **^,## %
  Micronucleated cells Total: 56
  Micronucleated cells Well 1: 29
  Micronucleated cells Well 2: 27
  Relative population doubling: 35.0%
human, 24 h, 1.1 µg/mL
  Micronucleated cells (%): (0.85) %
  Micronucleated cells Total: 34
  Micronucleated cells Well 1: 21
  Micronucleated cells Well 2: 13
  Relative population doubling: 81.7%
human, 24 h, 1.3 µg/mL
  Micronucleated cells (%): (0.73) %
  Micronucleated cells Total: 29
  Micronucleated cells Well 1: 17
  Micronucleated cells Well 2: 12
  Relative population doubling: 74.4%
human, 24 h, 1.5 µg/mL
  Micronucleated cells (%): (0.8) %
  Micronucleated cells Total: 32
  Micronucleated cells Well 1: 17
  Micronucleated cells Well 2: 15
  Relative population doubling: 69.5%
